Article PMC2248166, “Quantitative peptide binding motifs for 19 human and mouse MHC class I molecules derived using positional scanning combinatorial peptide libraries” (Immunome Research, 2008)

Assays:
[1] = biological target: HLA B*5401 (Homo sapiens, UniProt P01889, A329T/C349S/D138N/D201E/E176V/E187T/E204Q/E69G/I76V/K202T/L119W/R155S/R180L/S121T/S35A/S48A/V127L/V306I/V36M/Y140L); type: binding
[2] = biological target: H-2 K^k (Mus musculus, UniProt P04223); type: binding
[3] = biological target: HLA B*5101 (Homo sapiens, UniProt P01889, A329T/A93T/A95T/C349S/D138N/D201E/D98Y/E187L/E204Q/E69T/G107R/I218V/K202T/L105A/L119W/N104I/Q94N/R106L/R155S/R180L/S101N/S121T/S35A/S48A/V306I/V36M/Y195H/Y91F); type: binding
[4] = biological target: H-2 D^d (Mus musculus, UniProt P01900); type: binding
[5] = biological target: HLA B*1501 (Homo sapiens, UniProt P01889, A329T/A93T/A95T/C349S/D201E/D98Y/E187L/E204Q/E69M/E70A/K202T/N87E/Q94N/R155S/R180W/S121R/S35A/S48A/V306I/V36M/Y140S/Y91S); assay: biochemical; type: binding
[6] = biological target: HLA A*0201 (Homo sapiens, UniProt P04439, D140Y/D185E/D98H/E176V/E277Q/G131W/G231S/I119V/I121R/I166T/I218V/L300P/L318F/N151K/N90K/P208A/P217A/Q86G/Q94H/R138H/R169H/T345S); conditions: positional scanning combinatorial 9-mer library; normalized to 1.0 for the best residue at each position
[7] = biological target: H-2 D^b (Mus musculus, UniProt P01899); type: binding
[8] = biological target: HLA B*5801 (Homo sapiens, UniProt P01889, A329T/C349S/D201E/D98Y/E176V/E187L/E204Q/E69T/G107R/I218V/I90N/K202T/L105A/L119I/N104I/N87E/Q89R/Q94S/R106L/R155S/R180L/R86G/S101N/S121R/S35A/S48A/T118I/V127L/V306I/V36M/Y140S/Y91M); type: binding
[9] = biological target: HLA B*2705 (Homo sapiens, UniProt P01889, D138H/D201E/E176V/E204Q/G107R/H137Y/K202T/N104T/N87E/Q56L/Q94K/R106L/R155S/R180L/S101D/S121N/S48T/Y140D/Y33H/Y91C); type: binding; conditions: positional scanning combinatorial 9-mer library; normalized to 1.0 for the best residue at each position
[10] = biological target: HLA B*3501 (Homo sapiens, UniProt P01889, A329T/A93T/A95T/C349S/D201E/D98Y/E176V/E187L/E204Q/E69T/I218V/K202T/L119I/Q94N/R155S/R180L/S121R/S35A/S48A/T118I/V127L/V306I/V36M/Y140S/Y91F); type: binding
[11] = biological target: HLA B*5802 (Homo sapiens, UniProt P01889, A329T/C349S/D201E/D98Y/E176V/E187L/E204Q/E69T/G107R/I218V/I90N/K202T/L105A/N104I/N87E/Q89R/Q94S/R106L/R155S/R180L/R86G/S101N/S121W/S35A/S48A/V127L/V306I/V36M/Y140S/Y91M); type: binding
[12] = biological target: HLA B*1503 (Homo sapiens, UniProt P01889, A329T/A93T/A95T/C349S/D201E/D98Y/E187L/E204Q/K202T/N87E/Q94N/R155S/R180L/S121R/S35A/V306I/V36M/Y140S/Y91S); assay: biochemical; type: binding
[13] = biological target: HLA A*6802 (Homo sapiens, UniProt P04439, A269V/D140Y/D185E/E176V/E277Q/E87N/F33Y/G231S/I121R/I166T/I218V/L180W/L300P/L318F/N151K/P208A/P217A/Q86R/R138H/R169H/S129P/T345S/V36M); type: binding
[14] = biological target: HLA B*0801 (Homo sapiens, UniProt P01889, A93T/A95T/D138N/E176V/E187T/K202T/Q94N/R180D/S35A/V36M/Y33D/Y91F); assay: biochemical; type: binding
[15] = biological target: HLA B*5301 (Homo sapiens, UniProt P01889, A329T/A93T/A95T/C349S/D201E/D98Y/E176V/E187L/E204Q/E69T/G107R/I218V/K202T/L105A/L119I/N104I/Q94N/R106L/R155S/R180L/S101N/S121R/S35A/S48A/T118I/V127L/V306I/V36M/Y140S/Y91F); type: binding
[16] = biological target: HLA A*3001 (Homo sapiens, UniProt P04439, D140H/D185E/E176W/F33S/G80R/H175R/K168Q/R138E/R41S); assay: biochemical; type: binding
[17] = biological target: HLA B*0702 (Homo sapiens, UniProt P01889); type: binding; conditions: positional scanning combinatorial 9-mer library; normalized to 1.0 for the best residue at each position
[18] = biological target: HLA A*3201 (Homo sapiens, UniProt P04439, A270S/D101S/D185E/E176V/E277Q/F133L/G103R/G107R/G231S/H175R/I121M/I218V/I322F/K168Q/L105A/L300P/L318F/M331R/P208A/P217A/Q94H/R106L/R138Q/S129P/T104I/T323A/T345S/V100E/V321M/V358M); assay: biochemical; type: binding

H-2 D^b, sequence (P01887 21-119): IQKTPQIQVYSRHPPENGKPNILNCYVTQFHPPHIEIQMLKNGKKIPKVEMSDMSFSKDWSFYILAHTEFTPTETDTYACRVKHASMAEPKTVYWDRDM
H-2 D^b, sequence (P01899 25-362): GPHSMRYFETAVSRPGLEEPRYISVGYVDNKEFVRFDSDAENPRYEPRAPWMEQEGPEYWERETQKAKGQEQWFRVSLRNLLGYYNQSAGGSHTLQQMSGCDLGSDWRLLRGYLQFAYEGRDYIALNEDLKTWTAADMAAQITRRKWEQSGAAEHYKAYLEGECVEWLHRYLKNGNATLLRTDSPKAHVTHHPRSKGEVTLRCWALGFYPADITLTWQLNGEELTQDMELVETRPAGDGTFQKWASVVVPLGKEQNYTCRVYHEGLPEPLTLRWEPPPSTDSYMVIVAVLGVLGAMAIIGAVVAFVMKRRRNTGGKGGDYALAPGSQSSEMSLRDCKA
H-2 K^k, sequence (P01887 21-119): as the sequence (P01887 21-119) above
H-2 K^k, sequence (P04223 22-369): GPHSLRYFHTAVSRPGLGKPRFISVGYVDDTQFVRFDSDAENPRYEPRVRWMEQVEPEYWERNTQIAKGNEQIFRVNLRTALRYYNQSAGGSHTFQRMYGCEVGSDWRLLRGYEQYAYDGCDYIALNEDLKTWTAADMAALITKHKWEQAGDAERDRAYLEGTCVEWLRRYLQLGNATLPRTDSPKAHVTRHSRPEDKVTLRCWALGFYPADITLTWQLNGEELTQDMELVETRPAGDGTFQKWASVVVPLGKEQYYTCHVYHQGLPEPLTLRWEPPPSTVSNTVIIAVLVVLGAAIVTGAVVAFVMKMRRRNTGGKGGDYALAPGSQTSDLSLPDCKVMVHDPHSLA
H-2 D^d, sequence (P01900 whole entry, looked up): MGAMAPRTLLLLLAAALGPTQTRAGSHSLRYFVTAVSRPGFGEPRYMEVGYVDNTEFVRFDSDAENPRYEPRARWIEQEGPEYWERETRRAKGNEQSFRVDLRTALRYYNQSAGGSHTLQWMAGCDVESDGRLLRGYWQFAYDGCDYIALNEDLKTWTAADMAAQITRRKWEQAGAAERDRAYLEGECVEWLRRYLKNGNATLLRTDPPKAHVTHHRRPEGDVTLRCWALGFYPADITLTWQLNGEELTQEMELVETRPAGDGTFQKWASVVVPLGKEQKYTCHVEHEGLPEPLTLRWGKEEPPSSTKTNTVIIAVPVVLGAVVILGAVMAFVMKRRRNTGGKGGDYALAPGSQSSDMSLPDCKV

Sequence	Normalized average relative binding affinity (ARB), HLA B*5401 [1]	Normalized average relative binding affinity (ARB), H-2 Kk [2]	Normalized average relative binding affinity (ARB), HLA B*5101 [3]	Normalized average relative binding affinity (ARB), H-2 Dd [4]	Normalized average relative binding affinity (ARB), HLA B*1501 [5]	Normalized average relative binding affinity (ARB), HLA A*0201 [6]	Normalized average relative binding affinity (ARB), H-2 Db [7]	Normalized average relative binding affinity (ARB), HLA B*5801 [8]	Normalized average relative binding affinity (ARB), HLA B*2705 [9]	Normalized average relative binding affinity (ARB), HLA B*3501 [10]	Normalized average relative binding affinity (ARB), HLA B*5802 [11]	Normalized average relative binding affinity (ARB), HLA B*1503 [12]	Normalized average relative binding affinity (ARB), HLA A*6802 [13]	Normalized average relative binding affinity (ARB), HLA B*0801 [14]	Normalized average relative binding affinity (ARB), HLA B*5301 [15]	Normalized average relative binding affinity (ARB), HLA A*3001 [16]	Normalized average relative binding affinity (ARB), HLA B*0702 [17]	Normalized average relative binding affinity (ARB), HLA A*3201 [18]
XXQXXXXXX [3064.0054]	0.055	0.42	0.20	0.012	0.30	0.20	0.098	0.15	0.12	0.27	0.098	0.062	0.12	0.062	0.13	0.014	0.19	0.45
XXRXXXXXX [3064.0055]	0.062	0.19	0.33	0.0031	0.69	0.019	0.023	0.058	0.16	0.074	0.38	0.25	0.018	1.0	0.029	1.0	0.63	0.19
XXSXXXXXX [3064.0056]	0.014	0.43	0.16	0.0061	0.41	0.17	0.084	0.33	0.27	0.11	0.066	0.41	0.50	0.057	0.15	0.040	0.093	0.29
XXTXXXXXX [3064.0057]	0.012	0.11	0.14	0.0048	0.12	0.14	0.057	0.39	0.26	0.14	0.16	0.23	0.14	0.054	0.045	0.0040	0.035	0.16
